Data published in patent publication US20250206722A1, “SMALL MOLECULE INHIBITORS OF TEA DOMAIN FAMILY MEMBERS” (The Scripps Research Institute, priority 2022, published 2025).

Key:
NCI-H226 cells = experiment: NCI-H226 proliferation assay (in house); type: cell-based; details: Homo sapiens, 120 h, 5 days, Cell TiterGlo, 20-point 1:2 dilution from 20 μM
Procedure: NCI-H226 Proliferation Assay
NCI-H226 cells were obtained from American Type Culture Collection (ATCC, CRL-5826) and cultured in RPMI 1640 with L-glutamine (Corning, 10-040-CV) supplemented with 10% fetal bovine serum (Gibco, 10438-026) and 1% penicillin-streptomycin (Gibco, 15070063). Cells were trypsinized, resuspended in growth medium, and diluted to a concentrated of 10,000 cells/mL. 500 cells, 50 μL of cell suspension, per well were then plated in a white 384-well plate (Corning) and incubated at 37° C., 5% CO2. After 24 hours incubation, 100 nL of test compounds in DMSO, 20-point 1:2 dilution starting from 20 μM (final concentration) in triplicate, were transferred to each well using an Agilent Bravo instrument outfitted with a pintool head. Cells were incubated at 37° C., 5% CO2 for 5 days followed by the addition of 30 μL of Cell TiterGlo (Promega; diluted 1:6 in water) to each well and luminescence values recorded using an EnVision plate reader. […]

[1] = tested on: transcriptional activity of TEADs; experiment: TEAD reporter assay (MCF7 TEAD-LUC reporter cells); type: cell-based; details: Homo sapiens, 24 hours, BrightGlo luminescence
Procedure: MCF7 TEAD-LUC reporter cells were obtained from BPS Bioscience, Inc. and cultured in DMEM medium (Corning, 10-013-CV) supplemented with 10% fetal bovine serum (Gibco, 10438-026), 1% penicillin-streptomycin (Gibco, 15070063), 1% non-essential amino acids (Gibco, 15070063), and 10 μg/mL insulin (Sigma, 10516). Cells were trypsinized, resuspended in growth medium, and diluted to a concentrated of 100,000 cells/mL. 5,000 cells, 50 μL of cell suspension, per well were then plated in a white 384-well plate (Corning) and incubated at 37° C., 5% CO2. After 24 hours incubation, 100 nL of test compounds in DMSO, 20-point 1:2 dilution starting from 20 μM (final concentration) in triplicate, were transferred to each well using an Agilent Bravo instrument outfitted with a pintool head. Cells were incubated at 37° C., 5% CO2 for 24 hours followed by the addition of 30 μL of BrightGlo (Promega; diluted 1:3 in water) to each well and luminescence values recorded using an EnVision plate reader.
The in vitro assay results of the compounds in the present invention were included in Table 1. The compounds described herein, inhibited the transcriptional activity of TEADs, as assessed by decreased luminance from a TEAD reporter cell line (MCF7 TEAD-LUC) in response to compound treatment.

IC50 (NCI-H226 cells)	IC50 [1]	SMILES
5.64 µM	239 nM	C=CC(=O)N1CCN(c2ncc(O)nc2Nc2ccc(C(F)(F)F)cc2)CC1 [Example 111, 1-(4-(5-hydroxy-3-((4-(trifluoromethyl)phenyl)amino)pyrazin-2-yl)piperazin-1-yl)prop-2-en-1-one]
0.072 µM	4.4 nM	C=C(F)C(=O)N1CCN(c2nc(C)c(C)nc2Nc2ccc(C(F)(F)F)nc2)CC1 [Example 114, 1-(4-(5,6-dimethyl-3-((6-(trifluoromethyl)pyridin-3-yl)amino)pyrazin-2-yl)piperazin-1-yl)-2-fluoroprop-2-en-1-one]
> 10 µM	6.8 nM	C=CC(=O)N1CCN(c2cnncc2Nc2ccc(C(F)(F)F)cc2)CC1 [Example 122, 1-(4-(5-((4-(trifluoromethyl)phenyl)amino)pyridazin-4-yl)piperazin-1-yl)prop-2-en-1-one]
1.33 µM	1.1 nM	C=C(F)C(=O)N1CC=C(c2cnc(C)nc2Oc2ccc(C(F)(F)F)nc2)CC1 [Example 130, 2-fluoro-1-(4-(2-methyl-4-((6-(trifluoromethyl)pyridin-3-yl)oxy)pyrimidin-5-yl)-3,6-dihydropyridin-1(2H)-yl)prop-2-en-1-one]
2.25 µM	598 nM	C=CC(=O)N1CCC(c2cnc(C)nc2Oc2ccc(C(F)(F)F)nc2)CC1 [Example 131, 1-(4-(2-methyl-4-((6-(trifluoromethyl)pyridin-3-yl)oxy)pyrimidin-5-yl)piperidin-1-yl)prop-2-en-1-one]
4.31 µM	451 nM	C=C(F)C(=O)N1CCC(c2cnc(C)nc2Oc2ccc(C(F)(F)F)nc2)CC1 [Example 132, 2-fluoro-1-(4-(2-methyl-4-((6-(trifluoromethyl)pyridin-3-yl)oxy)pyrimidin-5-yl)piperidin-1-yl)prop-2-en-1-one]
0.722 µM	16.5 nM	C=CC(=O)N1CCN(c2nc(OC)ncc2Nc2ccc(C(F)(F)F)cc2)CC1 [Example 133, 1-(4-(2-methoxy-5-((4-(trifluoromethyl)phenyl)amino)pyrimidin-4-yl)piperazin-1-yl)prop-2-en-1-one]
1.67 µM	410 nM	C=C(F)C(=O)N1CCN(c2ncccc2Nc2ccc(C(F)(F)F)nc2)CC1 [Example 135, 2-fluoro-1-(4-(3-((6-(trifluoromethyl)pyridin-3-yl)amino)pyridin-2-yl)piperazin-1-yl)prop-2-en-1-one]
0.341 µM	66 nM	C=CC(=O)N1CC=C(c2ncccc2Oc2ccc(C(F)(F)F)nc2)CC1 [Example 136, 1-(3-((6-(trifluoromethyl)pyridin-3-yl)oxy)-3′,6′-dihydro-[2,4′-bipyridin]-1′(2′H)-yl)prop-2-en-1-one]
0.243 µM	22 nM	C=C(F)C(=O)N1CC=C(c2ncccc2Oc2ccc(C(F)(F)F)nc2)CC1 [Example 137, 2-fluoro-1-(3-((6-(trifluoromethyl)pyridin-3-yl)oxy)-3′,6′-dihydro-[2,4′-bipyridin]-1′(2′H)-yl)prop-2-en-1-one]
7.03 µM	3240 nM	C=C(F)C(=O)N1CCC(c2ncccc2Oc2ccc(C(F)(F)F)nc2)CC1 [Example 139, 2-fluoro-1-(4-(3-((6-(trifluoromethyl)pyridin-3-yl)oxy)pyridin-2-yl)piperidin-1-yl)prop-2-en-1-one]
11.1 µM	8.6 nM	C=CC(=O)N1CCN(c2ncccc2C(=O)c2ccc(C(F)(F)F)cn2)CC1 [Example 140, 1-(4-(3-(5-(trifluoromethyl)picolinoyl)pyridin-2-yl)piperazin-1-yl)prop-2-en-1-one]
0.5 µM	7.5 nM	C=CC(=O)N1CCN(c2ncccc2C(=O)c2ccc(C(F)(F)F)nc2)CC1 [Example 141, 1-(4-(3-(6-(trifluoromethyl)nicotinoyl)pyridin-2-yl)piperazin-1-yl)prop-2-en-1-one]
7.28 µM	2.3 nM	C=CC(=O)N1CCN(c2ncccc2C(O)c2ccc(C(F)(F)F)nc2)CC1 (centres unmarked) [Example 142, 1-(4-(3-(hydroxy(6-(trifluoromethyl)pyridin-3-yl)methyl)pyridin-2-yl)piperazin-1-yl)prop-2-en-1-one]
0.031 µM	8.1 nM	C=C(F)C(=O)N1CCN(c2cccnc2Nc2ccc(C(F)(F)F)nc2)CC1 [Example 144, 2-fluoro-1-(4-(2-((6-(trifluoromethyl)pyridin-3-yl)amino)pyridin-3-yl)piperazin-1-yl)prop-2-en-1-one]
0.158 µM	23.5 nM	C=C(F)C(=O)N1CC=C(c2cccnc2Nc2ccc(C(F)(F)F)nc2)CC1 [Example 146, 2-fluoro-1-(2-((6-(trifluoromethyl)pyridin-3-yl)amino)-3′,6′-dihydro-[3,4′-bipyridin]-1′(2′H)-yl)prop-2-en-1-one]
0.341 µM	66 nM	C=C(F)C(=O)N1CC=C(c2cccnc2Nc2ccc(OC(F)(F)F)nc2)CC1 [Example 148, 2-fluoro-1-(2-((6-(trifluoromethoxy)pyridin-3-yl)amino)-3′,6′-dihydro-[3,4′-bipyridin]-1′(2′H)-yl)prop-2-en-1-one]
2.71 µM	164 nM	C=CC(=O)N1CCC(c2cccnc2Nc2ccc(C(F)(F)F)nc2)CC1 [Example 149, 1-(4-(2-((6-(trifluoromethyl)pyridin-3-yl)amino)pyridin-3-yl)piperidin-1-yl)prop-2-en-1-one]
39.5 µM	4430 nM	C=C(F)C(=O)N1CCC(c2cccnc2Nc2ccc(C(F)(F)F)nc2)CC1 [Example 150, 2-fluoro-1-(4-(2-((6-(trifluoromethyl)pyridin-3-yl)amino)pyridin-3-yl)piperidin-1-yl)prop-2-en-1-one]
1.05 µM	188 nM	C=CC(=O)N1CCC(c2cccnc2Nc2ccc(OC(F)(F)F)nc2)CC1 [Example 151, 1-(4-(2-((6-(trifluoromethoxy)pyridin-3-yl)amino)pyridin-3-yl)piperidin-1-yl)prop-2-en-1-one]
22.2 µM	13500 nM	C=C(F)C(=O)N1CCC(c2cccnc2Nc2ccc(OC(F)(F)F)nc2)CC1 [Example 152, 2-fluoro-1-(4-(2-((6-(trifluoromethoxy)pyridin-3-yl)amino)pyridin-3-yl)piperidin-1-yl)prop-2-en-1-one]
0.083 µM	13.7 nM	C=C(F)C(=O)N1CCC(c2cccnc2Oc2ccc(C(F)(F)F)nc2)CC1 [Example 156, 2-fluoro-1-(4-(2-((6-(trifluoromethyl)pyridin-3-yl)oxy)pyridin-3-yl)piperidin-1-yl)prop-2-en-1-one]
0.027 µM	3.9 nM	C=C(F)C(=O)N1CC=C(c2cccnc2Oc2cnc(C(F)(F)F)nc2)CC1 [Example 158, 2-fluoro-1-(2-((2-(trifluoromethyl)pyrimidin-5-yl)oxy)-3′,6′-dihydro-[3,4′-bipyridin]-1′(2′H)-yl)prop-2-en-1-one]
2.94 µM	1650 nM	C=C(F)C(=O)N1CCC(c2cccnc2Oc2cnc(C(F)(F)F)nc2)CC1 [Example 160, 2-fluoro-1-(4-(2-((2-(trifluoromethyl)pyrimidin-5-yl)oxy)pyridin-3-yl)piperidin-1-yl)prop-2-en-1-one]
> 20 µM	1730 nM	C=CC(=O)N1CCN(c2ncccc2C(=O)N2CCC(F)(F)CC2)CC1 [Example 161, 1-(4-(3-(4,4-difluoropiperidine-1-carbonyl)pyridin-2-yl)piperazin-1-yl)prop-2-en-1-one]
